5 compounds from patent US9169217B2, “Arylalkyl esters of 4-amino-6-(substituted phenyl)-picolinates and 6-amino-2-(substituted phenyl)-pyrimidinecarboxylates and their use as selective herbicides for crops” (Dow AgroSciences LLC, priority 2011, dated 2015) can be followed below.

SMILES strings stand for the structures.

What all share (format): in vivo
The subject of assay [1] is Matricaria chamomilla (Mayweed, wild). Nature of the assay: Postemergence herbicidal activity in cereal crops (Example 14). The settings on record: wheat cropping systems, postemergence spray, 35 g ae/ha, 21 DAA. As for the experimental part: (§1) Seeds of the desired test plant species were planted in Sun Gro Metro-Mix® 360 planting mixture, which typically has a pH of 6.0 to 6.8 and an organic matter content of about 30 percent, in plastic pots with a surface area of 84.6 cm^2. When required to ensure good germination and healthy plants, a fungicide treatment and/or other chemical or physical treatment was applied. The plants were grown for 7-36 d in a greenhouse with an approximate 14 h photoperiod which was maintained at about 18° C. during the day and 17° C. during the night. Nutrients and water were added on a regular basis and supplemental lighting was provided with overhead metal halide 1000-Watt lamps as necessary. The plants were employed for testing when they reached the second or third true leaf stage.
(§2) Treatments consisted of esters of compounds 33, 34, 39, 40 and 42 and B, F, G and H. Compound B is methyl 4-amino-3-chloro-6-(4-cyclopropylphenyl)-5-fluoropicolinate; compound F is methyl 6-amino-2-(4-chloro-2-fluoro-3-methoxyphenyl)-5-methoxypyrimidine-4-carboxylate; compound G is methyl 4-amino-3-chloro-6-(4-chloro-2-fluoro-3-methoxyphenyl)picolinate; and compound H is methyl 4-amino-3-chloro-6-(4-chloro-2-fluoro-3-(1-fluoroethyl)phenyl)-5-fluoropicolinate. A weighed amount, determined by the highest rate to be tested, of each test compound was placed in a 25 mL glass vial and was dissolved in 8 mL of a 97:3 v/v mixture of acetone and DMSO to obtain concentrated stock solutions. […] The concentrated stock solutions obtained were diluted with 16 mL of an aqueous mixture containing acetone, water, isopropyl alcohol, DMSO, Agri-dex crop oil concentrate, and Triton® X-77 surfactant in a 64.7:26.0:6.7:2.0:0.7:0.01 v/v ratio to obtain spray solutions containing the highest application rates. Additional application rates were obtained by serial dilution of 12 mL of the high rate solution into a solution containing 4 mL of a 97:3 v/v mixture of acetone and DMSO and 8 mL of an aqueous mixture containing acetone, water, isopropyl alcohol, DMSO, Agri-dex crop oil concentrate, and Triton® X-77 surfactant in a 48.5:39.0:10.0:1.5:1.0:0.02 v/v ratio to obtain ½×, ¼×, ⅛× and 1/16× rates of the high rate. Compound requirements are based upon a 12 mL application volume at a rate of 187 L/ha. Formulated compounds were applied to the plant material with an overhead Mandel track sprayer equipped with 8002E nozzles calibrated to deliver 187 L/ha over an application area of 0.503 m^2 at a spray height of 18 inches (43 cm) above average plant canopy height. Control plants were sprayed in the same manner with the blank.
(§3) The treated plants and control plants were placed in a greenhouse as described above and watered by sub-irrigation to prevent wash-off of the test compounds. After 20-22 d, the condition of the test plants as compared with that of the untreated plants was determined visually and scored on a scale of 0 to 100 percent where 0 corresponds to no injury and 100 corresponds to complete kill.

Assay [2] concerns Brassica sinapis (Mustard, wild). The assay is described as above. The settings on record: wheat cropping systems, postemergence spray, 35 g ae/ha, 21 DAA. As for the experimental part:
as §1, §2, §3

Assay [3] has as its system Polygonum convolvulus (Buckwheat, wild). The assay is described as above. The conditions noted are these: wheat cropping systems, postemergence spray, 35 g ae/ha, 21 DAA. The method, then:
as §1, §2, §3

Assay [4] relates to Cirsium arvense (Thistle, Canada). As to the kind of experiment: Postemergence herbicidal activity in pastures (Example 15). The settings on record: pasture cropping systems, postemergence spray, 35 DAA. As for the experimental part:
(§4) Seeds of the desired test plant species were planted in Sun Gro Metro-Mix® 360 planting mixture, which typically has a pH of 6.0 to 6.8 and an organic matter content of about 30 percent, in plastic pots with a surface area of 139.7 cm^2. When required to ensure good germination and healthy plants, a fungicide treatment and/or other chemical or physical treatment was applied. The plants were grown with an approximate 14 h photoperiod which was maintained at about 24° C. during the day and 21° C. during the night. Nutrients and water were added on a regular basis and supplemental lighting was provided with overhead metal halide 1000-Watt lamps as necessary. The plants were employed for testing when they reached the four or six true leaf stage, depending on species.
as §2, with “39” for “33, 34, 39, 40”, “G.” for “42 and B, F, G and H.”, “Compound” for “Compound B is methyl 4-amino-3-chloro-6-(4-cyclopropylphenyl)-5-fluoropicolinate; compound F is methyl 6-amino-2-(4-chloro-2-fluoro-3-methoxyphenyl)-5-methoxypyrimidine-4-carboxylate; compound”, “4-amino-3-chloro-6-(4-chloro-2-fluoro-3-methoxyphenyl)picolinate.” for “4-amino-3-chloro-6-(4-chloro-2-fluoro-3-methoxyphenyl)picolinate; and compound H is methyl 4-amino-3-chloro-6-(4-chloro-2-fluoro-3-(1-fluoroethyl)phenyl)-5-fluoropicolinate.”
(§5) The treated plants and control plants were placed in a greenhouse as described above and watered by sub-irrigation to prevent wash-off of the test compounds. After 35 d, the condition of the test plants as compared with that of the untreated plants was determined visually and scored on a scale of 0 to 100 percent where 0 corresponds to no injury and 100 corresponds to complete kill.

Assay [5] relates to Solidago L. spec (Goldenrod). The description is as above. The settings on record: pasture cropping systems, postemergence spray, 35 DAA. The method, then:
as §4
as §2, with “39” for “33, 34, 39, 40”, “G.” for “42 and B, F, G and H.”, “Compound” for “Compound B is methyl 4-amino-3-chloro-6-(4-cyclopropylphenyl)-5-fluoropicolinate; compound F is methyl 6-amino-2-(4-chloro-2-fluoro-3-methoxyphenyl)-5-methoxypyrimidine-4-carboxylate; compound”, “4-amino-3-chloro-6-(4-chloro-2-fluoro-3-methoxyphenyl)picolinate.” for “4-amino-3-chloro-6-(4-chloro-2-fluoro-3-methoxyphenyl)picolinate; and compound H is methyl 4-amino-3-chloro-6-(4-chloro-2-fluoro-3-(1-fluoroethyl)phenyl)-5-fluoropicolinate.”
as §5

Regarding `COC(=O)c1nc(-c2ccc(Cl)c(OC)c2F)nc(N)c1OC` [Compound F, methyl 6-amino-2-(4-chloro-2-fluoro-3-methoxyphenyl)-5-methoxypyrimidine-4-carboxylate, reference compound], the “Visual Injury (%) MATCH” value in assay [1] came out at 10%.

Consider `COC(=O)c1nc(-c2ccc(Cl)c(OC)c2F)cc(N)c1Cl` [Compound G, methyl 4-amino-3-chloro-6-(4-chloro-2-fluoro-3-methoxyphenyl)picolinate, reference compound], for which the “Visual Injury (%) SINAR” value in assay [2] was found to be 80%. In addition, the “Visual Injury (%) MATCH” value in assay [1] is 75%. Also, the “Visual Injury (%) POLCO” value in assay [3] is given as 85%. Also, the “Visual Injury (%) CIRAR” value is 40% in assay [4] (17.5 g ae/ha) and 60% in assay [4] (35 g ae/ha). Also, the “Visual Injury (%) SOOSS” value is reported as 30% in assay [5] (70 g ae/ha) and 50% in assay [5] (140 g ae/ha).

Turning to `COC(=O)c1nc(-c2ccc(C3CC3)cc2)c(F)c(N)c1Cl` [Compound B, methyl 4-amino-3-chloro-6-(4-cyclopropylphenyl)-5-fluoropicolinate], the “Visual Injury (%) SINAR” value in assay [2] worked out at 70%. Besides, the “Visual Injury (%) POLCO” value in assay [3] came out at 62%.

On to `Nc1c(F)c(-c2ccc(C3CC3)cc2)nc(C(=O)OCc2ccccc2)c1Cl` [Compound 42, benzyl 4-amino-3-chloro-6-(4-cyclopropylphenyl)-5-fluoropicolinate], for which the “Visual Injury (%) SINAR” value in assay [2] is 93%. Also, the “Visual Injury (%) POLCO” value in assay [3] is recorded as 95%.

For the compound `COc1c(Cl)ccc(-c2cc(N)c(Cl)c(C(=O)OCc3ccccc3)n2)c1F` [Compound 39], the “Visual Injury (%) SINAR” value in assay [2] turned out to be 95%. For the same compound, the “Visual Injury (%) MATCH” value in assay [1] is reported as 95%. In addition, the “Visual Injury (%) POLCO” value in assay [3] was determined as 95%. Also, the “Visual Injury (%) CIRAR” value in assay [4] (17.5 g ae/ha) was determined as 100%; in assay [4] (35 g ae/ha) it was 95%. Besides, the “Visual Injury (%) SOOSS” value in assay [5] (70 g ae/ha) is reported as 85%; in assay [5] (140 g ae/ha), 100%.
